Data from paper PMC11192711, “Automated radiosynthesis and preclinical evaluation of two new PSMA-617 derivatives radiolabelled via [^18F]AlF^2+ method” (EJNMMI Radiopharmacy and Chemistry, 2024).

Key:
[1] = Stability in human plasma (HPLC, radio-TLC, pellet/supernatant activity); type: in vitro ADME; conditions: for Stability in human plasma: 37 °C, up to 4 h, HPLC and radio-TLC; for Pellet activity / Supernatant activity: ACN precipitation
Description: Stability in plasma was evaluated mixing aliquots of [^18F]1 or [^18F]2 solutions (10 MBq for 2 h incubation and 20 MBq for 4 h incubation samples) with 200 µL of human serum. The mixtures were incubated at 37 °C. Aliquots were taken at 2 h and 4 h. Plasma pellet was precipitated with 200 µL acetonitrile and centrifuged (13,500 rpm, 10 min). The supernatant was removed, and the activity of the supernatant solution and pellet was measured using a dose calibrator (VIK-202 Comecer). The supernatant solution was analyzed injecting in RP-HPLC (diluted 1:5 in water) and Radio-TLC as above described.

[2] = tested on: Gli36ΔEGFR tumours-bearing nude mice; test: PET/CT in vivo biodistribution and tumour uptake in orthotopic Gli36ΔEGFR glioma model; conditions: n = 3; for Bone (SUV mean) / Brain (SUV mean) / Colon (SUV mean) / Gall bladder (SUV mean) / Heart (SUV mean) / Kidney (SUV mean) / Liver (SUV mean) / Lung (SUV mean) / Muscle (SUV mean) / Salivary gland (SUV mean) / Small instestine (SUV mean): Gli36ΔEGFR female nude mice, i.v., PET/CT; for tumour-to-contralateral healthy brain ratio (tumour SUV max/contralateral SUV mean): Gli36ΔEGFR orthotopic glioma, nude mice
Description: Subsequently, we evaluated the uptake of [^18F]F-PSMA-617-NODA ([^18F]1) and [^18F]F-PSMA-617-RESCA ([^18F]2) in an orthotopic glioma model obtained with Gli36ΔEGFR cells in female nude mice. Gli36ΔEGFR tumours-bearing nude mice (n = 3) were injected i.v. with either [^18F]F-PSMA-617-NODA or [^18F]F-PSMA-617-RESCA (~ 3.8 MBq/mouse, ~ 50 pmol for [^18F]1 and ~ 170 pmol [^18F]2). Radiotracer uptake was assessed after 10, 60 and 120 min post injection by whole-body PET/CT acquisitions. Also in nude female mice, a rapid clearance of [^18F]1 in all organs and the same kinetic observed in NSG male mice (Additional file 1: S71A and B) were confirmed. […] It is interesting to note that the uptake of [^18F]1 in kidneys decreased over time in both models (Additional file 1: S71A and B), while the uptake of [^18F]F-PSMA-1007 in NSG model and [^18F]2 in nude female mice model increased (Additional file 1: S71C and D).
Total body biodistribution of [^18F]F-PSMA-1007, [^18F]F-PSMA-617-NODA and [^18F]F-PSMA-617-RESCA was evaluated in vivo using imaging PET/CT. [^18F]F-PSMA-617-NODA uptake was compared to that of the [^18F]F-PSMA-1007 in a PSMA positive prostate tumour xenograft model (LNCaP). [^18F]F-PSMA-617-NODA and [^18F]F-PSMA-617-RESCA uptake were also evaluated using an orthotopic glioma model (Gli36ΔEGFR).
5 × 10^5 Gli36ΔEGFR cells were injected in the right striatum of seven to eight weeks old female nude mice (Envigo RMS s.r.l., Italy) as previously described (Valtorta et al. [2021]). Ten days after mice underwent a T2-weighted Magnetic Resonance Imaging (MRI) using a 7 T small animal magnetic resonance scanner (Bruker, BioSpec 70/30 USR, Paravision 5.1, Germany) to confirm the growth of the tumour. Then, the same mice underwent in vivo biodistribution of [^18F]F-PSMA-617-NODA and [^18F]F-PSMA-617-RESCA, on successive but non-consecutive days, using PET/CT.
Mice were injected into a tail vein with 3.8 ± 0.1 MBq of [^18F]F-PSMA-1007, 4.0 ± 0.2 MBq of [^18F]F-PSMA-617-NODA ([^18F]1) and 3.8 ± 0.1 MBq of [^18F]F-PSMA-617-RESCA ([^18F]2), respectively.
Total body PET/CT acquisitions were performed using PET/CT tomographs dedicated to small animals, X-ß-CUBE (Molecubes, Gent, Belgium) after 10, 60 and 120 min from tracer injection. Each acquisition lasted 30 min and mice were maintained anesthetized (4% isoflurane in induction and 2% in maintenance in air) during acquisition.
Image quantification analysis was performed with PMOD 4.105 software (Zurich, Switzerland). Volumes of interest (VOIs) were drawn on peripheral organs (tumour, thoracic muscle, heart, liver, kidney, salivary glands, lung, small intestine, colon, bone, gall bladder) and on the healthy brain using CT images. For the glioma model, PET/CT images were co-registered to MRI images and two different VOIs were defined: (1) a control VOI covering the healthy left striatum (volume 4 mm^3) was drawn on the axial MR images, adjusted on the other imaging planes and then copied on the PET images of each mouse; (2) a second glioma-covering VOI was drawn in the tumour-affected brain hemisphere and centered on mice lesions.
For quantification, Standardized Uptake Value (SUV) was calculated according to the formula:
SUV = organ concentration activity [MBq/g]/(injected activity [MBq]/animal weight [g]).
The data were expressed as standardized-uptake-values (SUVmean and SUVmax) and as tumour-to-muscle (T/M) and tumour-to-blood (T/B) ratio in PCa model and as tumour-to-contralateral (T/Cl) ratio in glioma model.

[3] = [18F]1, 2 h incubation in plasma, total activity incubated 3.6 MBq
[4] = [18F]1, 4 h incubation in plasma, total activity incubated 3.89 MBq

## O=C(O)CCC(NC(=O)NC(CCCCNC(=O)C(Cc1ccc2ccccc2c1)NC(=O)C1CCC(CNC(=O)CCCN2CCN(CC(=O)O)CCN(CC(=O)O)CC2)CC1)C(=O)O)C(=O)O.[18F][Al] [[^18F]F-PSMA-617-NODA, (((S)-5-((S)-2-((1R,4S)-4-((4-(4,7-bis(carboxymethyl)-1,4,7-triazonan-1-yl)butanamido)methyl)cyclohexane-1-carboxamido)-3-(naphthalen-2-yl)propanamido)-1-carboxypentyl)carbamoyl)-L-glutamic acid [^18F] aluminium fluoride]
[1]; listed as [^18F]1
  Stability in human plasma: stable
[1]; listed as [^18F]PSMA-617-NODA
  Stability in human plasma: no substantial release of [^18F]AlF^2+
[1]; [3]
  Pellet activity: 0.4 MBq
  Supernatant activity: 3.2 MBq
[1]; [4]
  Pellet activity: 0.45 MBq
  Supernatant activity: 3.44 MBq
[1]; stability tests in human plasma
  protein uptake: ~ 11%
[2]; 10 min p.i.
  Bone (SUV mean): 0.18 ± 0.09
  Brain (SUV mean): 0.06 ± 0.01
  Colon (SUV mean): 0.37 ± 0.08
  Gall bladder (SUV mean): 0.33 ± 0.11
  Heart (SUV mean): 0.26 ± 0.05
  Kidney (SUV mean): 13.11 ± 1.60
  Liver (SUV mean): 0.22 ± 0.01
  Lung (SUV mean): 0.20 ± 0.04
  Muscle (SUV mean): 0.14 ± 0.01
  Salivary gland (SUV mean): 0.54 ± 0.17
  Small instestine (SUV mean): 0.32 ± 0.05
[2]; 60 min p.i.
  Bone (SUV mean): 0.13 ± 0.08
  Brain (SUV mean): 0.03 ± 0.01
  Colon (SUV mean): 0.27 ± 0.13
  Gall bladder (SUV mean): 0.10 ± 0.03
  Heart (SUV mean): 0.10 ± 0.03
  Kidney (SUV mean): 13.32 ± 2.23
  Liver (SUV mean): 0.11 ± 0.01
  Lung (SUV mean): 0.09 ± 0.04
  Muscle (SUV mean): 0.07 ± 0.01
  Salivary gland (SUV mean): 0.24 ± 0.09
  Small instestine (SUV mean): 0.25 ± 0.06
  tumour-to-contralateral healthy brain ratio (tumour SUV max/contralateral SUV mean): 7.75 ± 3.06
[2]; 120 min p.i.
  Bone (SUV mean): 0.12 ± 0.09
  Brain (SUV mean): 0.02 ± 0.01
  Colon (SUV mean): 0.16 ± 0.03
  Gall bladder (SUV mean): 0.04 ± 0.01
  Heart (SUV mean): 0.04 ± 0.002
  Kidney (SUV mean): 9.30 ± 3.60
  Liver (SUV mean): 0.05 ± 0.01
  Lung (SUV mean): 0.04 ± 0.01
  Muscle (SUV mean): 0.03 ± 0.01
  Salivary gland (SUV mean): 0.08 ± 0.04
  Small instestine (SUV mean): 0.15 ± 0.06
  tumour-to-contralateral healthy brain ratio (tumour SUV max/contralateral SUV mean): 10.92 ± 3.56
